Experiment [1] relates to CAK1-1. Nature of the experiment: NCI 60 cell line screen, sulforhodamine B, 48 h. It is filed as cell-based, human. The conditions noted are these: CAK1-1, Renal Cancer. On the procedure:
(§1) A detailed description of the screening procedure can be found at hypertext transfer protocol (http://) “dtp.nci.nih.gov/branches/btb/ivclsp.html.”
(§2) In brief, each of the 60 human tumor cell lines were grown in RPMI 1640 medium, supplemented with 5% fetal bovine serum and 2 mM L-glutamine. Cells were plated at their appropriate density in 96-well microtiter plates and incubated at 37° C., 5% CO2, 95% air and 100% relative humidity. […] Cells were incubated for an additional 48 hours and a sulforhodamine B protein assay was used to estimate cell viability or growth.

The test system of experiment [2] is HDP-62. Briefly: NCI 60 cell line screen, sulforhodamine B, 48 h. The format is cell-based, human. As to conditions: HDP-62, Non-Small Cell Lung Cancer. How it is done: as §1, §2
Experiment [3] relates to LOX IMVI. Briefly: NCI 60 cell line screen, sulforhodamine B, 48 h. It is filed as cell-based, human. As to conditions: Melanoma. How it is done:
as §1, §2

The subject of experiment [4] is MDA-N. Nature of the experiment: NCI 60 cell line screen, sulforhodamine B, 48 h. It is filed as cell-based, human. As to conditions: Breast Cancer. How it is done: as §1, §2
Experiment [5] concerns OVCAR-8. Nature of the experiment: NCI 60 cell line screen, sulforhodamine B, 48 h. It is filed as cell-based, human. As to conditions: OVCAR-8, Ovarian Cancer. On the procedure: as §1, §2
For experiment [6], the system named is UACC-62. Nature of the experiment: NCI 60 cell line screen, sulforhodamine B, 48 h. The format is cell-based, human. How it is done: as §1, §2
The subject of experiment [7] is UO-11. Briefly: NCI 60 cell line screen, sulforhodamine B, 48 h. The format is cell-based, human. On the procedure: as §1, §2
Experiment [8] concerns MIA PaCa-2. Nature of the experiment: Cell growth inhibition, resazurin, 48 h. As to conditions: Homo sapiens; MIA PaCa-2, 48 h drug exposure. The format is cell-based.
Experiment [9] relates to IκBα in HEK293 cells and NF-κB/Luc 293 reporter clone. Nature of the experiment: Western blot of phosphorylated and total IκBα. The format is cell-based, human. As to conditions: 50 and 500 nM, 1 hour pretreatment, TNF-α 30 minutes. How it is done:
Endogenous protein levels were assessed in both HEK293 cells and the NF-κB/Luc 293 reporter clone.
Antibodies against total and phosphorylated forms of IκBα were used to determine the endogenous level of each protein and anti-Tubulin antibody was used to confirm equal loading of protein.

In experiment [10] the test system is p21 and p27 in HEK293 cells and HEK293 NF-κB/Luciferase reporter clone. Nature of the experiment: Western blot of cell cycle regulatory proteins. The conditions noted are these: various concentrations, preliminary results. It is filed as cell-based, human. The text has this: The ubiquitin-proteasome pathway is an essential proteolytic system involved in cell cycle control by regulating the degradation of cyclins and cyclin-dependent kinase (Cdk) inhibitors such as p21 and p27. Pagano, et al., Science 269:682 (1995), Kisselev, et al., Chem Biol 8:739 (2001), King, et al., Science 274:1652 (1996). Furthermore, p21 and p27 protein levels are increased in the presence of proteasome inhibitors. Fukuchi, et al., Biochim Biophys Acta 1451:206 (1999), Takeuchi, et al., Jpn J Cancer Res 93:774 (2002).
The Western blots presented in FIG. 33 were reprobed using antibodies against p21 and p27 to determine the endogenous level of each protein and anti-Tubulin antibody was used to confirm equal loading of protein.

Structures are written as SMILES. Bounds are passed on as bounds.

In the case of `C[C@@]12OC(=O)[C@]1([C@@H](O)[C@@H]1C=CCCC1)NC(=O)[C@@H]2CCCl` [Formula II-16, Salinosporamide A], the “Log10 G150” value in experiment [1] is under -8.00 Molar; in experiment [2] it was under -8.00 Molar; in experiment [3] it was under -8.00 Molar; in [4], under -8.00 Molar; in experiment [5] it was under -8.00 Molar; in experiment [6] (UACC-62, Melanoma), under -8.00 Molar. In experiment [7] (UO-11, Renal Cancer), the “Log10 G150” value is recorded as under -8.00 Molar. Besides, the “Log10 TGI” value in [1] was over -4.00 Molar; in experiment [2], -4.89 Molar; in [3], -7.87 Molar; in experiment [4] it was under -8.00 Molar; in experiment [5], -7.70 Molar; in [6] (UACC-62, Melanoma) it was under -8.00 Molar. In addition, the “Log10 TGI” value in experiment [7] (UO-11, Renal Cancer) is given as -5.83 Molar. Further, the CC50 in experiment [6] (Homo sapiens, UACC-62, read-out: Log10 LC50 (converted)) is 91.2 nM; in experiment [7] (Homo sapiens, 60 cell, read-out: Log10 LC50 (converted)), 25700 nM. The compound also had an EC50 in [8] of 46 nM. Further, the “total IκBα and phospho-IκBα level” value in experiment [9] is listed as “reduced the degradation of total IκBα but also retained the phospho-IκBα level”. In addition, the “p21 and p27 protein levels” value in experiment [10] is “p21 and p27 protein levels were elevated”.

For the origin of these results see patent publication US7572606B1 (Nereus Pharmaceuticals, Inc., priority 2005, dated 2009).
